# Assay results: patent US8895549B2, “Aminoalcohol substituted 2,3-dihydroimidazo[1,2-c]quinazoline derivatives useful for treating hyper-proliferative disorders and diseases associated with angiogenesis” (Bayer Intellectual Property GmbH, priority 2010, dated 2014)
# What was measured:
# [1] = target: PI3Kβ (complex of human p110β and human p85α) (Homo sapiens (Human), UniProt P42338); assay: PI3Kβ kinase assay (HTRF-based PI3K inhibition assay); type: biochemical; settings: for inhibition at 0.93 µM: 0.93 μM compound, read-out: PI3K beta average % Inhibition at 0.93 μM; for IC50: 10 μM ATP, 10 μM PIP2, 20 min at 22° C., read-out: average IC50 in the PI3K beta biochemical assay; for PI3K beta average IC50/PI3K alpha average IC50: ratio of beta IC50 to alpha IC50;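 on all read-outs here: Kinase-made PIP3 detected by HTRF, displacing biotinylated PIP3 tracer from a complex of Europium anti-GST antibody, GST-fused PH domain and Streptavidin-APC, read as Europium-to-APC energy transfer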
# Sequence of PI3Kβ (complex of human p110β and human p85α) (P42338 whole entry, the tested form may be a part): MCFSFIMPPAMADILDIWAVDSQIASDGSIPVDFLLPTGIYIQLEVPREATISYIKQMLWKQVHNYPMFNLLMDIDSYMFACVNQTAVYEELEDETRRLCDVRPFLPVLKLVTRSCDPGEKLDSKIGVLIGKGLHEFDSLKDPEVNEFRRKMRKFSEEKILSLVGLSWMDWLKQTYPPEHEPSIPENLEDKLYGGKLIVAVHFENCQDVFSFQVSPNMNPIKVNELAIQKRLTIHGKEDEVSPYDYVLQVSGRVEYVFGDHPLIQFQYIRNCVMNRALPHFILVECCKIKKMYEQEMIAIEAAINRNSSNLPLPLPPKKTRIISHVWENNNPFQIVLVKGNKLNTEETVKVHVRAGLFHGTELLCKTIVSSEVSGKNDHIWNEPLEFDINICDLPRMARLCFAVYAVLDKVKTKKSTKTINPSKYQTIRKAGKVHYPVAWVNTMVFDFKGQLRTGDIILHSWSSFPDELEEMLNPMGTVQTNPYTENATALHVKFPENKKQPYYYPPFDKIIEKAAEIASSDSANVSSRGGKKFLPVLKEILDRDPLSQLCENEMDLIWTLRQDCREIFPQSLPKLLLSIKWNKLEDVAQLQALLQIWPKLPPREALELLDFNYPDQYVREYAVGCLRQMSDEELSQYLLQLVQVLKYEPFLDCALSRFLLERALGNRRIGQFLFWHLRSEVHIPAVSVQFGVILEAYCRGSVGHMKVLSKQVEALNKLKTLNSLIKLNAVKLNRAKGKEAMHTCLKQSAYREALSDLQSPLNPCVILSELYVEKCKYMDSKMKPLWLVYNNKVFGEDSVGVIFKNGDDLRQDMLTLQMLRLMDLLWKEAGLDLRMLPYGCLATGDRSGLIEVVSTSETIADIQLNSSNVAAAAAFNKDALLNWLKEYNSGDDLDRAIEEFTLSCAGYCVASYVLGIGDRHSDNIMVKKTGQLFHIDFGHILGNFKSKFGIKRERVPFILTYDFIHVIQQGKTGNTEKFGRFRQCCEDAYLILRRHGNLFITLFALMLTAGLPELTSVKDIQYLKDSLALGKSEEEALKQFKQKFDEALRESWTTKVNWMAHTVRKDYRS
# Sequence of PI3Kβ (complex of human p110β and human p85α) (P27986 whole entry partner, the tested form may be a part): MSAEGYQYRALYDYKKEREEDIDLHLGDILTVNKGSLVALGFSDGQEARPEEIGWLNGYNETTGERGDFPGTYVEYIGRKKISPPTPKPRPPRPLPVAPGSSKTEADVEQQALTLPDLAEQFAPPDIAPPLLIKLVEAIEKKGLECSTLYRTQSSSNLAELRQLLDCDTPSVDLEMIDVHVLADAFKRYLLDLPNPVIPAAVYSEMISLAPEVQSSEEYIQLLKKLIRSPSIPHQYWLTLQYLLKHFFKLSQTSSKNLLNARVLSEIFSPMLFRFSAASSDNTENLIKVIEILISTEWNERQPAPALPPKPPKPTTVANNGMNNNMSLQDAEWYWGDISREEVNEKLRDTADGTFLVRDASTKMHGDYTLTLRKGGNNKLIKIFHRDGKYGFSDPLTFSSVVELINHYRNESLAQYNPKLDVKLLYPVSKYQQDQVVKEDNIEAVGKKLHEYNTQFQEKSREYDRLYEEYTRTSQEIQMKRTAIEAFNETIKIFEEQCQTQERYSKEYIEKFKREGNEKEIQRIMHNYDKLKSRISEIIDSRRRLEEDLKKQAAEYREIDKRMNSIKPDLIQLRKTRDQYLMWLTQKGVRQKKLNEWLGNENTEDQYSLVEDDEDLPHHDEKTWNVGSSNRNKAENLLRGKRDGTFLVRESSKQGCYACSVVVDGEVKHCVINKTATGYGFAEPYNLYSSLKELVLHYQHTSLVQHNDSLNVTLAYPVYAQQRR
# Text: (§1) Determination of % Inhibition and IC50 Values of Compounds in PI3Kα Kinase Assay
# PI3Kα inhibitory activity of compounds of the present invention was quantified employing the HTRF based PI3K inhibition assay as described below.
# (§2) As reagents for the kinase reaction itself and the quantification of the reaction product, the PI3-Kinase HTRF Assay kit from Millipore (#33-017) was used. With this kit the phosphatidylinositol 3,4,5-trisphosphate (PIP3) generated in the kinase reaction is detected by displacement of a biotinylated ligand from an energy transfer complex consisting of a Europium-labeled anti-GST monoclonal antibody, a GST-tagged PH domain, biotinylated PIP3 and Streptavidin-Allophycocyanin (APC).
# For the assay 50 nL of a 80-fold concentrated solution of the test compound in DMSO was pipetted into a black low volume 384-well microtiter plate (Greiner Bio-One, Frickenhausen, Germany), 3 μl of a solution of PI3Kβ and phosphatidylinositol-4,5-bisphosphate (PIP2, 13.8 μM=> final conc. in 4 μl reaction volume=10 μM) in 1× reaction buffer (exact composition not disclosed by the vendor) were added and the mixture was incubated for 15 min at 22° C. to allow pre-binding of the test compounds to the enzyme before the start of the kinase reaction. The amount of PI3Kβ was chosen to have the enzyme reaction in the linear range and depended on the activity of the individual lot, typical concentrations in assay were in the range of 120 ng/mL. Then the kinase reaction was started by the addition of 1 μL of a solution of adenosine triphosphate (ATP, 40 μM=> final conc. in the 4 μl assay volume is 10 μM) in reaction buffer and the resulting mixture was incubated for a reaction time of 20 min at 22° C.
# The reaction was stopped by the addition of 1 μL of an stop solution (containing the biotinylated PIP3 used as a tracer). Then 1 μL detection mix (containing a Europium-labeled anti-GST monoclonal antibody, a GST-tagged PH domain, and Streptavidin-Allophycocyanin) was added and resulting mixture was incubated for 3 h at 22° C. to allow the formation of complexes between the detection reagents and either the PIP3 generated in the kinase reaction, or the biotinylated PIP3 added with the stop solution. Subsequently the amount of energy transfer complex consisting of a Europium-labeled anti-GST monoclonal antibody, a GST-tagged PH domain, biotinylated PIP3 and Streptavidin-Allophycocyanin (APC) was evaluated by measurement of the resonance energy transfer from the Europium-labeled anti-GST monoclonal antibody to the Streptavidin-Allophycocyanin. Therefore, the fluorescence emissions at 620 nm and 665 nm after excitation at 350 nm were measured using a TR-FRET reader, e.g., a Pherastar (BMG Labtechnologies, Offenburg, Germany) or a Viewlux (Perkin-Elmer). The ratio of the emissions at 665 nm and at 622 nm were taken as the measure for the amount of biotinylated PIP3 bound to the GST-tagged PH domain, which is negatively correlated with the amount of PIP3 generated.
# [2] = target: PI3Kα (complex of human p110α and human p85α) (Homo sapiens (Human), UniProt P42336); assay: PI3Kα kinase assay (HTRF-based PI3K inhibition assay); type: biochemical; settings: for inhibition at 0.93 µM: 0.93 μM compound, read-out: PI3K alpha average % Inhibition at 0.93 μM; for IC50: 10 μM ATP, 10 μM PIP2, 20 min at 22° C., read-out: average IC50 in the PI3K alpha biochemical assay;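 on all read-outs here: PIP3 product detected by HTRF, reading resonance energy transfer from Europium-labeled anti-GST antibody to Streptavidin-APC, as displacement of biotinylated PIP3 tracer from the GST-PH domain complex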
# Sequence of PI3Kα (complex of human p110α and human p85α) (P42336 whole entry, the tested form may be a part): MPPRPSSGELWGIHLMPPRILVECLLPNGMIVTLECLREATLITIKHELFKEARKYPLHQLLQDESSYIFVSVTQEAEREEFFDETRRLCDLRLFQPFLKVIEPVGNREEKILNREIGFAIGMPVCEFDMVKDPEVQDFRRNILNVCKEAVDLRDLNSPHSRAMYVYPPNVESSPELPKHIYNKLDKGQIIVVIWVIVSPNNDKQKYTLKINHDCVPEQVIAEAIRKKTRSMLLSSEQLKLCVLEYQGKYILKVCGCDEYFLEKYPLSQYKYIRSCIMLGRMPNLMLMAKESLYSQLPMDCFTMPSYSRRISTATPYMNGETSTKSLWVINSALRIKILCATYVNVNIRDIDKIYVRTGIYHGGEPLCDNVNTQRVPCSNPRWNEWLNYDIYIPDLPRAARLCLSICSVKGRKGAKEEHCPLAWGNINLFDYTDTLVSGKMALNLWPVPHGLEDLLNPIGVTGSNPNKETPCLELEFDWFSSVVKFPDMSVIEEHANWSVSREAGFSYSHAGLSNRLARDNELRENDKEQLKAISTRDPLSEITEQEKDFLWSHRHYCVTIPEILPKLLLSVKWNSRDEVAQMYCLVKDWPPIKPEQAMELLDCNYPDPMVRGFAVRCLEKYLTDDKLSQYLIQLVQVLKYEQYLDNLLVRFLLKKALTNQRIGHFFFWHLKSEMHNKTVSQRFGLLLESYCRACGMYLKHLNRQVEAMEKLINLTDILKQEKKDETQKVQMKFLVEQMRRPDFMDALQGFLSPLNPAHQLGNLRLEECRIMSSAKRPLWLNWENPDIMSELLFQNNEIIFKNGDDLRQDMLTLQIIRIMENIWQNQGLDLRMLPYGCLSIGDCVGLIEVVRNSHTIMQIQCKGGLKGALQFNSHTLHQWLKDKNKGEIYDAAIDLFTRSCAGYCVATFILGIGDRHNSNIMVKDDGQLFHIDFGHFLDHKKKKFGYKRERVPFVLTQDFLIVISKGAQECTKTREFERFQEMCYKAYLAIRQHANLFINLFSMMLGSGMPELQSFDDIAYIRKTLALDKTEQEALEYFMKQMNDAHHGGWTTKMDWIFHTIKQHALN
# Sequence of PI3Kα (complex of human p110α and human p85α) (P27986 whole entry partner, the tested form may be a part): as the sequence (P27986 whole entry partner, the tested form may be a part) above
# Text: as §1
# PI3Kα inhibitory activity of compounds of the present invention was quantified employing the HTRF-based PI3K inhibition assay as described below.
# as §2
# For the assay 50 nL of a 80-fold concentrated solution of the test compound in DMSO was pipetted into a black low volume 384-well microtiter plate (Greiner Bio-One, Frickenhausen, Germany), 3 μL of a solution of PI3Kα and phosphatidylinositol-4,5-bisphosphate (PIP2, 13.8 μM=> final conc. in 4 μl reaction volume=10 μM) in 1× reaction buffer (exact composition not disclosed by the vendor) were added and the mixture was incubated for 15 min at 22° C. to allow pre-binding of the test compounds to the enzyme before the start of the kinase reaction. The amount of PI3Kα was chosen to have the enzyme reaction in the linear range and depended on the activity of the individual lot, typical concentrations in assay were in the range of 90 ng/mL. Then the kinase reaction was started by the addition of 1 μL of a solution of adenosine triphosphate (ATP, 40 μM=> final conc. in the 4 μL assay volume is 10 μM) in reaction buffer and the resulting mixture was incubated for a reaction time of 20 min at 22° C.
# The reaction was stopped by the addition of 1 μL of an stop solution (containing the biotinylated PIP3 used as a tracer), then 1 μL detection mix (containing a Europium-labeled anti-GST monoclonal antibody, a GST-tagged PH domain, and Streptavidin-Allophycocyanin) was added and resulting mixture was incubated 3 h at 22° C. to allow the formation of complexes between the detection reagents and either the PIP3 generated in the kinase reaction, or the biotinylated PIP3 added with the stop solution. Subsequently, the amount of energy transfer complex consisting of a Europium-labeled anti-GST monoclonal antibody, a GST-tagged PH domain, biotinylated PIP3 and Streptavidin-Allophycocyanin (APC) was evaluated by measurement of the resonance energy transfer from the Europium-labeled anti-GST monoclonal antibody to the Streptavidin-Allophycocyanin. Therefore, the fluorescence emissions at 620 nm and 665 nm after excitation at 350 nm were measured using a TR-FRET reader, e.g., a Pherastar (BMG Labtechnologies, Offenburg, Germany) or a Viewlux (Perkin-Elmer). The ratio of the emissions at 665 nm and at 622 nm was taken as the measure for the amount of biotinylated PIP3 bound to the GST-tagged PH domain, which is negatively correlated with the amount of PIP3 generated.
inhibition at 0.93 µM [1],IC50 [1],PI3K beta average IC50/PI3K alpha average IC50 [1],inhibition at 0.93 µM [2],IC50 [2],Structure (SMILES)
,10 to 50 nM,9.37,,< 10 nM,"COc1c(OCC(O)CN2CCOCC2)ccc2c1N=C(NC(=O)c1ccc(N)nc1)N1CCN=C21 (stereo not shown) [Example 21, 6-amino-N-{8-[2-hydroxy-3-(morpholin-4-yl)propoxy]-7-methoxy-2,3-dihydroimidazo[1,2-c]quinazolin-5-yl}pyridine-3-carboxamide]"
92.1%,,,97.4%,,"COc1c(OCC(O)CN2CCOCC2)ccc2c1N=C(NC(=O)c1cccnc1)N1CCN=C21 (stereo not shown) [Comparative Example 1, N-{8-[2-hydroxy-3-(morpholin-4-yl)propoxy]-7-methoxy-2,3-dihydroimidazo[1,2-c]quinazolin-5-yl}pyridine-3-carboxamide, reference compound]"
95.5%,10 to 50 nM,5.91,96.1%,< 10 nM,"COc1c(OC[C@H](O)CN2CCOCC2)ccc2c1N=C(NC(=O)c1cncs1)N1CCN=C21 [Example 32, N-(8-{[(2R)-2-Hydroxy-3-(morpholin-4-yl)propyl]oxy}-7-methoxy-2,3-dihydroimidazo[1,2-c]quinazolin-5-yl)-1,3-thiazole-5-carboxamide]"

# Further lines, the compound ahead of its results:
Structure (SMILES),inhibition at 0.93 µM [1],IC50 [1],PI3K beta average IC50/PI3K alpha average IC50 [1],inhibition at 0.93 µM [2],IC50 [2]
"COc1c(OCC(O)CN(C)C)ccc2c1N=C(NC(=O)c1cccnc1)N1CCN=C21 (stereo not shown) [Example 10, N-{8-[3-(dimethylamino)-2-hydroxypropoxy]-7-methoxy-2,3-dihydroimidazo[1,2-c]quinazolin-5-yl}pyridine-3-carboxamide]",98.1%,10 to 50 nM,5.47,96.3%,< 10 nM
"COc1c(OC[C@H](O)CN2CCCC2)ccc2c1N=C(NC(=O)c1cncnc1)N1CCN=C21 [Example 24, N-(8-{[(2R)-2-hydroxy-3-(pyrrolidin-1-yl)propyl]oxy}-7-methoxy-2,3-dihydroimidazo[1,2-c]quinazolin-5-yl)pyrimidine-5-carboxamide]",94.7%,10 to 50 nM,1.99,85.1%,10 to 50 nM
"COc1c(OC[C@H](O)CN2CCCCC2)ccc2c1N=C(NC(=O)c1cccnc1)N1CCN=C21 [Example 9, N-(8-{[(2R)-2-Hydroxy-3-(piperidin-1-yl)propyl]oxy}-7-methoxy-2,3-dihydroimidazo[1,2-c]quinazolin-5-yl)pyridine-3-carboxamide]",97.2%,10 to 50 nM,2.02,104%,< 10 nM
"COc1c(OC[C@H](O)CN2CCOCC2)ccc2c1N=C(NC(=O)c1cccnc1C)N1CCN=C21 [Example 14, N-(8-{[(2R)-2-Hydroxy-3-(morpholin-4-yl)propyl]oxy}-7-methoxy-2,3-dihydroimidazo[1,2-c]quinazolin-5-yl)-2-methylpyridine-3-carboxamide]",102%,10 to 50 nM,3.09,104%,< 10 nM
"COc1c(OC[C@H](O)CN2CCCCC2)ccc2c1N=C(NC(=O)c1cccnc1C)N1CCN=C21 [Example 19, N-(8-{[(2R)-2-Hydroxy-3-(piperidin-1-yl)propyl]oxy}-7-methoxy-2,3-dihydroimidazo[1,2-c]quinazolin-5-yl)-2-methylpyridine-3-carboxamide]",91.2%,10 to 50 nM,2.78,103%,< 10 nM
"COc1c(OC[C@H](O)CN2CCCC2)ccc2c1N=C(NC(=O)c1cncs1)N1CCN=C21 [Example 36, N-(8-{[(2R)-2-Hydroxy-3-(pyrrolidin-1-yl)propyl]oxy}-7-methoxy-2,3-dihydroimidazo[1,2-c]quinazolin-5-yl)-1,3-thiazole-5-carboxamide]",93.9%,10 to 50 nM,3.41,92.4%,< 10 nM
